Drawing on PubChem BioAssay AID504792 (Sanford-Burnham Center for Chemical Genomics, 2011), this text covers IC50 for 1 molecule.

Active and inactive are the calls of the source.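 The calls were made as follows: active = IC50 at or below 20 µM; inactive = the rest.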 Bounds are passed on as bounds.

The test addresses Glucose-6-phosphate 1-dehydrogenase (Homo sapiens) (UniProt P11413). The test is described as follows: human G6PD enzyme inhibitors, dose response, selectivity assay for P. falciparum G6PD inhibitor project, biochemical, fluorescence (AID 504792). The following applies: NADPH resazurin-diaphorase fluorescence.

Sequence of Glucose-6-phosphate 1-dehydrogenase (Homo sapiens) (P11413 whole entry, looked up): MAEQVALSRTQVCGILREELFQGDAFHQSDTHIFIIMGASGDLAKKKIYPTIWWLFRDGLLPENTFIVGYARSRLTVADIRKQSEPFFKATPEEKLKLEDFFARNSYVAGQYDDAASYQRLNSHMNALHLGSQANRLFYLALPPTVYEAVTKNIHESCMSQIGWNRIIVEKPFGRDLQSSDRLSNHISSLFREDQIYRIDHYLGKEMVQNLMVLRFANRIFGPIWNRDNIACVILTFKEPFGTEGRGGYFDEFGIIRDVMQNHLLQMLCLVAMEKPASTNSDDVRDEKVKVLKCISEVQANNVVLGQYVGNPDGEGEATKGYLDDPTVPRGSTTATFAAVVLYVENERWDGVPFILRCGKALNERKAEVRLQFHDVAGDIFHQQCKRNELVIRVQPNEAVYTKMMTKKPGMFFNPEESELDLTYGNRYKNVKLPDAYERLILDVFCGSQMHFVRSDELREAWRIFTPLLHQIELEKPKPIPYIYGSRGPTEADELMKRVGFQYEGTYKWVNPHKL

Regarding `C[c-]1[c-](C)[c-](C)[c-](C)[c-]1C.[Fe].c1cc2nccc(N3CCCC3)[c-]2c1` (stereo unspecified), the IC50 was > 80 µM (inactive).
